Source: patent publication US11261177B2, “Benzoxazinone derivatives useful as herbicides” (REDAG CROP PROTECTION LTD, priority 2017, dated 2022)

How the values were obtained:
Assay type in all cases: in vivo
Lolium perenne [1] = test: Pre-emergence herbicidal assay, 96 cell trays, glasshouse; settings: 168 h, Lollium, assessed 7 days after treatment, read-out: % control of plant growth; for pest or weed control at 200 g/ha: 0.2 kg/ha; for pest or weed control at 1000 g/ha: 1 kg/ha; for pest or weed control at 5000 g/ha: 5 kg/ha
Experimental: (§1) The compounds were screened at three concentrations (0.2, 1 and 5 kg/ha) against 2 weed species (Stellaria media—Chickweed and Lolium perenne). The seeds were sown in the cells of 96 cell trays (4-6 seeds per cell). For the pre-emergence assay, 75 μL of a suspension of the test compound, at the above doses, was added on top of the soil 1 day after sowing. For the post-emergence assay, the seedlings were sprayed with 200 μL of a suspension of the test compound two weeks after sowing. The formulation used is 25% acetone and 75% water/0.01% Tween 20. Each treatment was replicated three times. The plants were kept in a glasshouse (uncontrolled conditions) and assessed 7 days after treatment. A small number of compounds were tested in a first trial. A larger number of compounds were tested in a second trial. The assessment was based on the % control of plant growth in each cell.

[2] = system: Stellaria media—Chickweed; test: as above; settings: 168 h, assessed 7 days after treatment, read-out: % control of plant growth; for pest or weed control at 200 g/ha: 0.2 kg/ha; for pest or weed control at 1000 g/ha: 1 kg/ha; for pest or weed control at 5000 g/ha: 5 kg/ha
Experimental: as §1

[3] = system: 2 weed species (Stellaria media—Chickweed and Lolium perenne); test: Herbicidal activity screen, summary in words over both weed species; settings: pre- and post-emergence, 0.2, 1 and 5 kg/ha
Experimental: as §1

Lolium perenne [4] = test: Post-emergence herbicidal assay, 96 cell trays, glasshouse; settings: 168 h, Lollium, assessed 7 days after treatment, read-out: % control of plant growth; for pest or weed control at 200 g/ha: 0.2 kg/ha; for pest or weed control at 1000 g/ha: 1 kg/ha; for pest or weed control at 5000 g/ha: 5 kg/ha
Experimental: as §1

[5] = system: Stellaria media—Chickweed; test: as above; settings: 168 h, assessed 7 days after treatment, read-out: % control of plant growth; for pest or weed control at 200 g/ha: 0.2 kg/ha; for pest or weed control at 1000 g/ha: 1 kg/ha; for pest or weed control at 5000 g/ha: 5 kg/ha
Experimental: as §1

SMILES | pest or weed control at 200 g/ha (Lolium perenne [1]; second trial (Table 2)) | pest or weed control at 1000 g/ha (Lolium perenne [1]; second trial (Table 2)) | pest or weed control at 5000 g/ha (Lolium perenne [1]; second trial (Table 2)) | pest or weed control at 200 g/ha ([2]; second trial (Table 2)) | pest or weed control at 1000 g/ha ([2]; second trial (Table 2)) | pest or weed control at 5000 g/ha ([2]; second trial (Table 2)) | herbicidal activity [3] | pest or weed control at 200 g/ha (Lolium perenne [4]; second trial (Table 2)) | pest or weed control at 1000 g/ha (Lolium perenne [4]; second trial (Table 2)) | pest or weed control at 5000 g/ha (Lolium perenne [4]; second trial (Table 2)) | pest or weed control at 200 g/ha ([5]; second trial (Table 2)) | pest or weed control at 1000 g/ha ([5]; second trial (Table 2)) | pest or weed control at 5000 g/ha ([5]; second trial (Table 2)) | further results
C#CCN1C(=O)C2(CC2)Oc2cc(F)c(-n3ncc(C(F)(F)F)c(C)c3=O)cc21 [Example 4, 7-Fluoro-6-(5-methyl-6-oxo-4-(trifluoromethyl)pyridazin-1(6H)-yl)-4-(prop-2-yn-1-yl)spiro[benzo[b][1,4]oxazine-2,1′-cyclopropan]-3(4H)-one] | 80 to 100% | 80 to 100% | 80 to 100% | 80 to 100% | 80 to 100% | 80 to 100% | excellent herbicidal activity against all tested species | 80 to 100% | 80 to 100% | 80 to 100% | 80 to 100% | 80 to 100% | 80 to 100% | pest or weed control at 200 g/ha (Lolium perenne [1]; first trial (Table 1)): 80 to 100%; pest or weed control at 1000 g/ha (Lolium perenne [1]; first trial (Table 1)): 80 to 100%; pest or weed control at 5000 g/ha (Lolium perenne [1]; first trial (Table 1)): 80 to 100%; pest or weed control at 200 g/ha ([2]; first trial (Table 1)): 80 to 100%; pest or weed control at 1000 g/ha ([2]; first trial (Table 1)): 80 to 100%; pest or weed control at 5000 g/ha ([2]; first trial (Table 1)): 80 to 100%; pest or weed control at 200 g/ha (Lolium perenne [4]; first trial (Table 1)): 80 to 100%; pest or weed control at 1000 g/ha (Lolium perenne [4]; first trial (Table 1)): 80 to 100%; pest or weed control at 5000 g/ha (Lolium perenne [4]; first trial (Table 1)): 80 to 100%; pest or weed control at 200 g/ha ([5]; first trial (Table 1)): 20 to 80%; pest or weed control at 1000 g/ha ([5]; first trial (Table 1)): 20 to 80%; pest or weed control at 5000 g/ha ([5]; first trial (Table 1)): 20 to 80%
C#CCN1C(=O)C2(CC2)Oc2cc(F)c(N3C(=O)c4ccc(C)cc4C3=O)cc21 [Example 8] | 20 to 80% | 80 to 100% | 80 to 100% | 80 to 100% | 80 to 100% | 80 to 100% | excellent herbicidal activity against all tested species | 20 to 80% | 80 to 100% | 80 to 100% | 80 to 100% | 80 to 100% | 80 to 100% | –
COC(=O)C(C)N1C(=O)C2(CC2)Oc2cc(F)c(N3C(=O)C4=C(CCCC4)C3=O)cc21 (stereo not shown) [Example 15] | 20 to 80% | 80 to 100% | 80 to 100% | 80 to 100% | 80 to 100% | 80 to 100% | excellent herbicidal activity against all tested species | 20 to 80% | 80 to 100% | 80 to 100% | 80 to 100% | 80 to 100% | 80 to 100% | –
CCOC(=O)C(C)N1C(=O)C2(CC2)Oc2cc(F)c(N3C(=O)C4=C(CCCC4)C3=O)cc21 (stereo not shown) [Example 18] | 80 to 100% | 80 to 100% | 80 to 100% | 80 to 100% | 80 to 100% | 80 to 100% | excellent herbicidal activity against all tested species | 20 to 80% | 80 to 100% | 80 to 100% | 80 to 100% | 80 to 100% | 80 to 100% | –
CCOC(=O)C(C)N1C(=O)C2(CC2)Oc2cc(F)c(N3C(=O)c4ccc(F)cc4C3=O)cc21 (stereo not shown) [Example 19] | 20 to 80% | 80 to 100% | 80 to 100% | 80 to 100% | 80 to 100% | 80 to 100% | excellent herbicidal activity against all tested species | 20 to 80% | 80 to 100% | 80 to 100% | 80 to 100% | 80 to 100% | 80 to 100% | –
O=C1c2ccc(F)cc2C(=O)N1c1cc2c(cc1F)OC1(CC1)C(=O)N2CC1CC1 [Example 26] | 80 to 100% | 80 to 100% | 80 to 100% | 80 to 100% | 80 to 100% | 80 to 100% | excellent herbicidal activity against all tested species | 80 to 100% | 80 to 100% | 80 to 100% | 80 to 100% | 80 to 100% | 80 to 100% | –
COCCN1C(=O)C2(CC2)Oc2cc(F)c(N3C(=O)c4ccc(F)cc4C3=O)cc21 [Example 27] | 20 to 80% | 80 to 100% | 80 to 100% | 80 to 100% | 80 to 100% | 80 to 100% | excellent herbicidal activity against all tested species | 20 to 80% | 80 to 100% | 80 to 100% | 80 to 100% | 80 to 100% | 80 to 100% | –
O=C1c2ccc(F)cc2C(=O)N1c1cc2c(cc1F)OC1(CC1)C(=O)N2CC1CO1 (stereo not shown) [Example 36, 5-Fluoro-2-(7-fluoro-4-(oxiran-2-ylmethyl)-3-oxo-3,4-dihydrospiro[benzo[b][1,4]oxazine-2,1′-cyclopropan]-6-yl)isoindoline-1,3-dione] | < 20% | 20 to 80% | 20 to 80% | < 20% | 20 to 80% | 80 to 100% | – | < 20% | 20 to 80% | 20 to 80% | 80 to 100% | 80 to 100% | 80 to 100% | –
C#CCN1C(=O)C2(CC2)Oc2cc(F)c(-n3c(=O)cc(C(F)(F)F)n(CC#C)c3=O)cc21 [Example 41] | 80 to 100% | 80 to 100% | 80 to 100% | 80 to 100% | 80 to 100% | 80 to 100% | – | < 20% | 20 to 80% | 80 to 100% | 80 to 100% | 80 to 100% | 80 to 100% | –
C#CCN1C(=O)C2(CC2)Oc2cc(F)c(-n3c(=O)cc(C(F)(F)F)n(CC(=O)OC)c3=O)cc21 [Example 42] | < 20% | 20 to 80% | 20 to 80% | 20 to 80% | 80 to 100% | 80 to 100% | – | 20 to 80% | 20 to 80% | 80 to 100% | 80 to 100% | 80 to 100% | 80 to 100% | –
